The text below walks through data of patent US10556920B2, “Phosphorus-containing heterocycles and a method for making and using” (University of Oregon, priority 2015, dated 2020).

Holding throughout (type): physicochemical
Data set [1] in a line: Fluorescence excitation/emission. The source says:
^1H and ^13C NMR spectra were obtained on a Varian 300 MHz spectrometer (^1H: […], ^13C: […]), Inova 500 MHz spectrometer (^1H: 500.10 MHz, ^13C: 125.75 MHz) or Varian 600 MHz spectrometer (^1H: 599.98 MHz, ^13C: 150.87 MHz). Chemical shifts (6) are expressed in ppm using non-deuterated solvent present in the bulk deuterated solvent (CDCl3: ^1H 7.26 ppm, ^13C 77.16 ppm; (CD3)2SO: ^1H 2.5 ppm, ^13C 39.52 ppm). Solvents and reagents were used as purchased from suppliers, unless anhydrous conditions were employed, in which solvents were freshly distilled from sodium/benzophenone under N2 atmosphere (THF) or as purchased in sealed, DriSolv containers (pyridine). Triphenylphosphite was freshly distilled under vacuum before use. Mass spectra were acquired with a Waters LCT Premier ESI-MS in positive mode using acetone as a solvent. UV-Vis spectra were acquired with a Hewlett-Packard 8453 UV-Visible spectrophotometer equipped with a 250 nm cutoff filter. Fluorescence data was acquired with a Horiba Jobin-Yvon FluoroMax-4 fluorescence spectrophotometer. HPLC performed using a JAI Recycling Preparative HPLC (Model LC-9101) with a JAIGEL-1H preparative column.
The compounds gave fluorescence emissions similar to those of carbostyril. (3-Ph-carbostyril ex: 345 nm, em: 410 nm; II-3 ex: 354 nm, em: 427 nm).
The only scaffold which responded to the addition of acid was one containing a 2-pyridyl substituent, which directly corresponded to protonation of the pyridine. The N—H proton of the NH—P(OPh)=O functionality is fairly acidic, and easily removed via treatment with organic bases such as DBU. […] The fluorophore II-7 gave substitution patterns that were followed for both red-shift and quantum yield optimization of carbostyril fluorophores. Following the guidelines within the scaffold, with placement of electron donating groups in the 6- and 7-positions, and an electron-withdrawing group in the 3-position, yielded a fluorophore with an emission of 505 nm and a quantum yield of 45% in CHCl3.

A further data set in a line: Dimerization in solution. From the text:
This corresponded to an energy of 1.5 kcal/mol for each H-bond, which was quite high compared to cis-amides such as pyrrolidone or caprolactam, who experience dimerization constants from 1-5 M^−1 in CHCl3. […] As a result, this dimer deviated from the trends previously reported, where each attractive interaction gave −1.88 kcal/mol of energy to ΔG, and each repulsive secondary interaction gave +0.74 kcal/mol. Following the same schema, the two repulsive secondary interactions in the present dimer yielded only +0.76 kcal/mol of destabilization, about half of what was expected.

The nature of data set [2]: Stability of phosphonimidate form toward hydrolysis/heat. The note with it: 100° C. reaction conditions. The source says:
Disclosed herein is a synthetic approach to assemble the 2-λ^5-phosphaquinoline in one step from easily attainable starting materials. By treatment of a 2-ethynyl aniline (for example, accessible from Sonogashira cross-coupling with commercially available 2-iodoanilines) with triphenylphosphite, the disclosed compounds were synthesized in good to modest yields (Table 1). Typically, upon isolation and purification via hot recrystallization in ambient atmosphere, the phosphaquinoline partially hydrolyzed, yielding the phosphaquinolinone form and releasing phenol. However, the phosphonimidate form (A) appeared to be stable at room temperature. This reaction was tolerant to a variety of electron-rich and electron-poor arenes, as well as alkyl functionality attached at the ethynyl.
Except for compounds with a 2-pyridyl substituent, the phosphonimidate compounds tended to hydrolyze when heated in ambient atmosphere to give the phosphonamidate. If the reaction was performed rigorously water-free, and worked up with minimal exposure to ambient atmosphere, the phosphonimidate forms (I) can be isolated for all of the derivatives. […] This and stability of the phosphonimidate toward hydrolysis at room temperature lent credence to increased stability from delocalization within the heterocycle.

Setting [3] is: TEA added, in CHCl3 (deprotonated N-H).

In the case of `O=P1(Oc2ccccc2)Nc2ccccc2C=C1c1ccccc1` (centres unmarked) [II-3, 2-phenoxy-3-phenyl-1H-benzo[e][1,2]azaphosphinine 2-oxide], in data set [1] (solvent not stated), the “fluorescence emission (em)” value is on record as 427 nm and the “fluorescence excitation (ex)” value was 354 nm.
Take `N#Cc1ccc(C2=Cc3cc4c(cc3NP2(=O)Oc2ccccc2)OCO4)cc1` (centres unmarked) [II-7, 4-(2-oxido-2-phenoxy-1H-[1,3]dioxolo[4′,5′:4,5]benzo[1,2-e][1,2]azaphosphinin-3-yl)benzonitrile]: the “fluorescence emission (em)” value in data set [1] (CHCl3, neutral form) is 505 nm. Moreover, the quantum yield in data set [1] (in CHCl3) stood at 45%.
For `O=c1[nH]c2ccccc2cc1-c1ccccc1` [3-Ph-carbostyril, reference compound], in data set [1] (solvent not stated), the “fluorescence emission (em)” value is 410 nm and the “fluorescence excitation (ex)” value came to 345 nm.
As to `N#Cc1ccc(C2=Cc3ccccc3NP2(=O)Oc2ccccc2)cc1` (centres unmarked) [II-1, 4-(2-oxido-2-phenoxy-1H-benzo[e][1,2]azaphosphinin-3-yl)benzonitrile], the “fluorescence emission (em)” value in data set [1] (CHCl3, neutral form) is recorded as 430 nm; in data set [1] (MeCN) it was 450 nm; in data set [1] (setting [3]), 542 nm. Further, the “fluorescence excitation (ex)” value turned out to be 345 nm in data set [1] (CHCl3, neutral form) and 360 nm in data set [1] (setting [3]). The Stokes shift in data set [1] (upon treatment with base (TEA) in CHCl3) is given as 180 nm. Moreover, in “Dimerization in solution” (from dimerization constant in CDCl3), the “energy for each H-bond” value was found to be 1.5 kcal/mol. Besides, the dimerization constant in “Dimerization in solution” (in CDCl3) turned out to be 133 ± 15 M⁻¹.
For the compound `COc1ccc(C2=Cc3ccccc3NP2(=O)Oc2ccccc2)cc1` (centres unmarked) [II-4, 3-(4-methoxyphenyl)-2-phenoxy-1H-benzo[e][1,2]azaphosphinine 2-oxide], the “fluorescence emission (em)” value in data set [1] (CHCl3, neutral form) is 411 nm; in data set [1] (MeCN) it was 411 nm.
Take `CCOC(=O)c1ccc(C2=Cc3ccccc3N=P2(Oc2ccccc2)Oc2ccccc2)cc1` [I-2, ethyl 4-(2,2-diphenoxy-2-λ^5-benzo[e][1,2]azaphosphinin-3-yl)benzoate]: the “stability under reaction conditions” value in data set [2] is “quite stable”.
